Data published in patent publication US9540343B2 (Gilead Sciences, Inc., priority 2011, dated 2017).

Assays:
[1] = in vitro; conditions: human, uninfected MT-4 cells, CC50 (nM), same protocol as Test A, CellTiter-Glo
Summary of the method: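 Cytoprotection read-out: CellTiter-Glo chemiluminescence after 5 days at 37 °C of HIV-IIIb-infected MT-4 cells (m.o.i. 0.003) with compound in 10-point 3-fold dilutions, quadruplicate, 10% FBS. Cytotoxicity (CC50) measured identically without virus.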

[2] = test system: HIV-IIIb; experiment: Test A: Antiviral assay in MT4 cells; format: cell-based, HIV-1; conditions: Human immunodeficiency virus 1, IIIB, MT4, 120 h, read-out: % inhibition at 2 μM, percent inhibition of virus-induced cell killing, from dose response curve at 2 uM drug; MT-4 cells infected with HIV-IIIb, 5 days, CellTiter-Glo

Row | SMILES | CC50 at 5 days [1] [nM] | inhibition at 2 µM [2] [%]
1 | O=C(Cc1c[nH]c2ccc(F)cc12)N[C@@H](Cc1cc(F)cc(F)c1)c1ncccc1-c1ccccc1-c1ccccc1 [Example 398, (S)—N-(1-(3-(biphenyl-2-yl)pyridin-2-yl)-2-(3,5-difluorophenyl)ethyl)-2-(5-fluoro-1H-indol-3-yl)acetamide] | 9830 | 2
2 | O=C1Cc2cc(-c3cccnc3[C@H](Cc3cc(F)cc(F)c3)NC(=O)Cn3nc(C(F)F)c4c3C(F)(F)C3CC43)ccc2N1 (stereo partly drawn) [Example 400, (S)—N-(1-(3-(oxindole-5-yl)-pyridin-2-yl)-2-(3,5-difluorophenyl)ethyl)-2-(3-(difluoromethyl)-5,6-dihydro-4,5-(methano)-6,6-difluoro-cyclopenta[c]pyrazol-1(4H)-yl)acetamide] | 23300 | 45
3 | CN(C)CCNC(=O)c1cccc(-c2cccnc2[C@H](Cc2cc(F)cc(F)c2)NC(=O)Cn2nc(C(F)(F)F)c3c2CCCC3)c1 [Example 401C, (S)-3-(2-(2-(3,5-difluorophenyl)-1-(2-(3-(trifluoromethyl)-4,5,6,7-tetrahydro-1H-indazol-1-yl)acetamido)ethyl)pyridin-3-yl)-N-(2-(dimethylamino)ethyl)benzamide] | 9720 | 87
4 | O=C(Cc1c[nH]c2ccc(O)cc12)N[C@@H](Cc1cc(F)cc(F)c1)c1ncccc1-c1ccccc1 [Example 402, (S)—N-(2-(3,5-difluorophenyl)-1-(3-phenylpyridin-2-yl)ethyl)-2-(5-hydroxy-1H-indol-3-yl)acetamide] | 24800 | 92
5 | NC(=O)c1cc(-c2cccnc2[C@H](Cc2cc(F)cc(F)c2)NC(=O)Cn2nc(C=O)c3c2C2CCC3C2)ccc1F (stereo partly drawn) [Example 403, (S)-5-(2-(2-(3,5-difluorophenyl)-1-(2-(4,5,6,7-tetrahydro-3-formyl-4,7-(methano)indazol-1-yl)acetamido)ethyl)pyridin-3-yl)-2-fluorobenzamide] | 10500 | 112
6 | Cc1cc(F)ccc1-c1cccnc1[C@H](Cc1cc(F)cc(F)c1)NC(=O)Cc1c[nH]c2ccc(F)cc12 [Example 404, (S)—N-(2-(3,5-difluorophenyl)-1-(3-(4-fluoro-2-methylphenyl)pyridin-2-yl)ethyl)-2-(5-fluoro-1H-indol-3-yl)acetamide] | 44600 | 0
7 | CNC(=O)c1ccc(-c2cccnc2[C@H](Cc2cc(F)cc(F)c2)NC(=O)Cc2c[nH]c3ccc(F)cc23)cc1Cl [Example 405, (S)-2-chloro-4-(2-(2-(3,5-difluorophenyl)-1-(2-(5-fluoro-1H-indol-3-yl)acetamido)ethyl)pyridin-3-yl)-N-methylbenzamide] | 21100 | 11
8 | O=C(Cc1c[nH]c2ccc(F)cc12)N[C@@H](Cc1cc(F)cc(F)c1)c1ncccc1-c1ccc(F)c(F)c1 [Example 406, (S)—N-(2-(3,5-difluorophenyl)-1-(3-(3,4-difluorophenyl)pyridin-2-yl)ethyl)-2-(5-fluoro-1H-indol-3-yl)acetamide] | 11400 | 27
9 | O=C(Cn1nc(C(F)(F)F)c2c1CCCC2)N[C@@H](Cc1cc(F)cc(F)c1)c1ncccc1-c1cnc2[nH]ccc2c1 [Example 407, (S)—N-(1-(3-(1H-pyrrolo[2,3-b]pyridin-5-yl)pyridin-2-yl)-2-(3,5-difluorophenyl)ethyl)-2-(3-(trifluoromethyl)-4,5,6,7-tetrahydro-1H-indazol-1-yl)acetamide] | 12000 | 102
10 | NC(=O)c1cc(-c2cccnc2[C@H](Cc2cc(F)cc(F)c2)NC(=O)Cn2nc(C(=O)O)c3c2C2CCC3C2)ccc1F (stereo partly drawn) [Example 409, (S)-5-(2-(2-(3,5-difluorophenyl)-1-(2-(4,5,6,7-tetrahydro-3-carboxy-4,7-(methano)indazol-1-yl)acetamido)ethyl)pyridin-3-yl)-2-fluorobenzamide] | > 53200 | 0
11 | O=C(Cn1nc(C(F)F)c2c1C(F)(F)C1CC21)N[C@@H](Cc1cc(F)cc(F)c1)c1ncccc1-c1cccc2cnccc12 (stereo partly drawn) [Example 410, (S)—N-(1-(3-(quinole-5-yl)-pyridin-2-yl)-2-(3,5-difluorophenyl)ethyl)-2-(3-(difluoromethyl)-5,6-dihydro-4,5-(methano)-6,6-difluoro-cyclopenta[c]pyrazol-1(4H)-yl)acetamide] | 13700 | 103
12 | O=C(Cn1nc(C(F)F)c2c1C(F)(F)C1CC21)N[C@@H](Cc1cc(F)cc(F)c1)c1ncccc1-c1ccc2ncccc2c1 (stereo partly drawn) [Example 411, (S)—N-(1-(3-(quinoline-6-yl)-pyridin-2-yl)-2-(3,5-difluorophenyl)ethyl)-2-(3-(difluoromethyl)-5,6-dihydro-4,5-(methano)-6,6-difluoro-cyclopenta[c]pyrazol-1(4H)-yl)acetamide] | 8980 | 53
13 | NC(=O)c1cc(-c2cccnc2[C@H](Cc2cc(F)cc(F)c2)NC(=O)Cc2c[nH]c3ccc(F)cc23)ccc1Cl [Example 412, (S)-2-chloro-5-(2-(2-(3,5-difluorophenyl)-1-(2-(5-fluoro-1H-indol-3-yl)acetamido)ethyl)pyridin-3-yl)benzamide] | 11100 | 80
14 | CS(=O)(=O)c1ccc(-c2cccnc2[C@H](Cc2cc(F)cc(F)c2)NC(=O)Cc2c[nH]c3ccc(F)cc23)cc1 [Example 413, (S)—N-(2-(3,5-difluorophenyl)-1-(3-(4-(methylsulfonyl)phenyl)pyridin-2-yl)ethyl)-2-(5-fluoro-1H-indol-3-yl)acetamide] | 14500 | 61
15 | NC(=O)c1cc(-c2cccnc2[C@H](Cc2cc(F)cc(F)c2)NC(=O)Cn2nc(C(F)(F)F)c3c2C(=O)CCC3(F)F)ccc1F [Example 414] | 23400 | 39
16 | O=C(Cn1nc(C(F)F)c2c1C(F)(F)C1CC21)N[C@@H](Cc1cc(F)cc(F)c1)c1ncccc1-c1ccc2nccnc2c1 (stereo partly drawn) [Example 415, (S)—N-(1-(3-(quinoxalin-6-yl)-pyridin-2-yl)-2-(3,5-difluorophenyl)ethyl)-2-(3-(difluoromethyl)-5,6-dihydro-4,5-(methano)-6,6-difluoro-cyclopenta[c]pyrazol-1(4H)-yl)acetamide] | 38000 | 39
17 | O=C(Cc1c[nH]c2ccc(F)cc12)N[C@@H](Cc1cc(F)cc(F)c1)c1ncccc1-c1ccc(-c2ccccc2)cc1 [Example 416, (S)—N-(1-(3-(biphenyl-4-yl)pyridin-2-yl)-2-(3,5-difluorophenyl)ethyl)-2-(5-fluoro-1H-indol-3-yl)acetamide] | 10300 | 0
18 | CC(C)(C)NC(=O)c1cc(-c2cccnc2[C@H](Cc2cc(F)cc(F)c2)NC(=O)Cc2c[nH]c3ccc(F)cc23)ccc1F [Example 417, (S)—N-tert-butyl-5-(2-(2-(3,5-difluorophenyl)-1-(2-(5-fluoro-1H-indol-3-yl)acetamido)ethyl)pyridin-3-yl)-2-fluorobenzamide] | 12800 | 8
19 | NC(=O)c1cccc(-c2cccnc2[C@H](Cc2cc(F)cc(F)c2)NC(=O)Cn2cnc3ccccc32)c1 [Example 418, (S)-3-(2-(1-(2-(1H-benzo[d]imidazol-1-yl)acetamido)-2-(3,5-difluorophenyl)ethyl)pyridin-3-yl)benzamide] | > 53200 | 19
20 | Cc1cc(-c2cccnc2[C@H](Cc2cc(F)cc(F)c2)NC(=O)Cc2c[nH]c3ccc(F)cc23)cnc1F [Example 419] | 27100 | 42
21 | O=C(Cn1nc(C(F)F)c2c1C(F)(F)C1CC21)N[C@@H](Cc1cc(F)cc(F)c1)c1ncccc1-c1cccc2ncccc12 (stereo partly drawn) [Example 420, (S)—N-(1-(3-(isoquinole-5-yl)-pyridin-2-yl)-2-(3,5-difluorophenyl)ethyl)-2-(3-(difluoromethyl)-5,6-dihydro-4,5-(methano)-6,6-difluoro-cyclopenta[c]pyrazol-1(4H)-yl)acetamide] | 18700 | 110
22 | O=C(Cn1nc(C(F)F)c2c1C(F)(F)C1CC21)N[C@@H](Cc1cc(F)cc(F)c1)c1ncccc1-c1ccc2[nH]ncc2c1 (stereo partly drawn) [Example 421, (S)—N-(1-(3-(indozol-5-yl)-pyridin-2-yl)-2-(3,5-difluorophenyl)ethyl)-2-(3-(difluoromethyl)-5,6-dihydro-4,5-(methano)-6,6-difluoro-cyclopenta[c]pyrazol-1(4H)-yl)acetamide] | 10200 | 70
23 | O=C(Cc1c[nH]c2ccc(F)cc12)N[C@@H](Cc1cc(F)cc(F)c1)c1ncccc1-c1cc(Cl)cc(Cl)c1 [Example 422] | 6760 | 0
24 | O=C(Cn1nc(C(F)(F)F)c2c1CCCC2)N[C@@H](Cc1cc(F)cc(F)c1)c1ncccc1-c1cccc(C(=O)N2CCOCC2)c1 [Example 424, (S)—N-(2-(3,5-difluorophenyl)-1-(3-(3-(morpholine-4-carbonyl)phenyl)pyridin-2-yl)ethyl)-2-(3-(trifluoromethyl)-4,5,6,7-tetrahydro-1H-indazol-1-yl)acetamide] | 14200 | 78
25 | CS(=O)(=O)c1ccc(-c2cccnc2[C@H](Cc2cc(F)cc(F)c2)NC(=O)Cn2nc(C(F)(F)F)c3c2CCCC3)cc1 [Example 425, (S)—N-(2-(3,5-difluorophenyl)-1-(3-(4-(methylsulfonyl)phenyl)pyridin-2-yl)ethyl)-2-(3-(trifluoromethyl)-4,5,6,7-tetrahydro-1H-indazol-1-yl)acetamide] | 15600 | 85
